According to ChEMBL document CHEMBL6096696, “Structure-Activity Relationship Studies of an Autophagy Inhibitor That Targets the ATG14L-Beclin1 Protein-Protein Interaction Reveal Modifications That Improve Potency and Solubility and Maintain Selectivity” (J Med Chem, 2025):
Converted amounts (≈) assume the structure as drawn. Each block holds one compound with its values, some of them ahead of it.

Assays:
HEK293T = assay: Inhibition of C-terminal Nano-luc tagged ATG14L/C-terminal Halo-tagged Beclin 1 (unknown origin) PPI tranfected with HEK293T cells using […] at 100 uM incubated for 24 hrs by […] assay relative to control; format: cell-based; settings: Homo sapiens, values are per cent of control
[1] = Kinetic aqueous solubility of compound in PBS at pH 7.4 by absorbance based analysis; format: physicochemical; settings: read-out: Kinetic_solubility

SMILES: CCCN1C(=O)COc2ccc(NS(=O)(=O)c3cc(OC)ccc3OC)cc21
residual binding, % of control (HEK293T): 103%
solubility kinetic [1]: > 100 µM

SMILES: Cc1cccc(NS(=O)(=O)c2ccc3c(c2)N(C)C(=O)CO3)c1C
residual binding, % of control (HEK293T): 106%
solubility kinetic [1]: > 100 µM

SMILES: Cc1cccc(NS(=O)(=O)c2ccc3c(c2)OCC(=O)N3Cc2ccccc2)c1C
residual binding, % of control (HEK293T): 105%
solubility kinetic [1]: 50 µM (≈ 21.1 µg/mL)

SMILES: CCCN1C(=O)COc2ccc(S(=O)(=O)N3CCCCC3)cc21
residual binding, % of control (HEK293T): 109%
solubility kinetic [1]: > 100 µM

SMILES: CCCCN1C(=O)COc2ccc(S(=O)(=O)Nc3cccc(C)c3C)cc21
residual binding, % of control (HEK293T): 110%
solubility kinetic [1]: > 100 µM

SMILES: CCCN1C(=O)COc2ccc(NC(=O)c3cccc(Br)c3)cc21
residual binding, % of control (HEK293T): 112%
solubility kinetic [1]: > 100 µM

SMILES: Cc1cccc(NS(=O)(=O)c2ccc3c(c2)OCC(=O)N3Cc2ccco2)c1C
residual binding, % of control (HEK293T): 109%
solubility kinetic [1]: > 100 µM

SMILES: CCCN1C(=O)COc2ccc(NC(=O)c3cccc(C)c3C)cc21
residual binding, % of control (HEK293T): 92%
solubility kinetic [1]: > 100 µM

SMILES: Cc1cccc(NS(=O)(=O)c2ccc3c(c2)OCC(=O)N3CCc2ccccc2)c1C
residual binding, % of control (HEK293T): 103%
solubility kinetic [1]: > 100 µM

SMILES: CCCN1C(=O)COc2ccc(NC(=O)c3ccc(Cl)cc3Cl)cc21
residual binding, % of control (HEK293T): 109%
solubility kinetic [1]: 50 µM (≈ 19 µg/mL)

SMILES: CCCN1C(=O)COc2ccc(NC(=O)c3cccc([N+](=O)[O-])c3)cc21
residual binding, % of control (HEK293T): 104%
solubility kinetic [1]: > 100 µM

SMILES: Cc1cccc(NS(=O)(=O)c2ccc3c(c2)OCC(=O)N3Cc2ccccn2)c1C
residual binding, % of control (HEK293T): 112%
solubility kinetic [1]: > 100 µM

SMILES: Cc1cccc(NS(=O)(=O)c2ccc3c(c2)N(CC(C)O)C(=O)CO3)c1C (stereo not given)
residual binding, % of control (HEK293T): 107%
solubility kinetic [1]: > 100 µM

SMILES: CCCN1C(=O)COc2ccc(S(=O)(=O)Nc3cc(OC)ccc3OC)cc21
residual binding, % of control (HEK293T): 107%
solubility kinetic [1]: > 100 µM

More lines, main results first:

solubility kinetic [1]: > 100 µM
SMILES: CCCN1C(=O)COc2ccc(NC(=O)c3ccccc3)cc21
residual binding, % of control (HEK293T): 106%

solubility kinetic [1]: > 100 µM
SMILES: CCCN1C(=O)COc2ccc(NS(=O)(=O)c3cccc(Br)c3)cc21
residual binding, % of control (HEK293T): 101%

solubility kinetic [1]: > 100 µM
SMILES: CCCN1C(=O)COc2ccc(S(=O)(=O)Nc3cccc(Cl)c3)cc21
residual binding, % of control (HEK293T): 145%

solubility kinetic [1]: > 100 µM
SMILES: CCCN1C(=O)COc2ccc(NS(=O)(=O)c3cccc(OC)c3)cc21
residual binding, % of control (HEK293T): 99.8%

solubility kinetic [1]: > 100 µM
SMILES: CCCN1C(=O)COc2ccc(S(=O)(=O)Nc3ccccc3)cc21
residual binding, % of control (HEK293T): 134%

solubility kinetic [1]: > 100 µM
SMILES: CCCN1C(=O)COc2ccc(S(=O)(=O)Nc3c(C)cccc3C)cc21
residual binding, % of control (HEK293T): 105%

solubility kinetic [1]: > 100 µM
SMILES: CCCN1C(=O)COc2ccc(NS(=O)(=O)c3ccccc3)cc21
residual binding, % of control (HEK293T): 89.2%

solubility kinetic [1]: > 100 µM
SMILES: CCCN1C(=O)COc2ccc(NC(=O)Cc3ccccc3)cc21
residual binding, % of control (HEK293T): 127%

solubility kinetic [1]: > 100 µM
SMILES: CCCN1C(=O)COc2ccc(NS(=O)(=O)c3cccc(C)c3)cc21
residual binding, % of control (HEK293T): 96.2%

solubility kinetic [1]: > 100 µM
SMILES: CCCN1C(=O)COc2ccc(NS(=O)(=O)c3cccc(C(F)(F)F)c3)cc21
residual binding, % of control (HEK293T): 80%

solubility kinetic [1]: > 100 µM
SMILES: CCCN1C(=O)COc2ccc(NS(=O)(=O)c3ccccc3Br)cc21
residual binding, % of control (HEK293T): 88.1%

solubility kinetic [1]: > 100 µM
SMILES: CCCN1C(=O)COc2ccc(NS(=O)(=O)c3ccc(Cl)cc3Cl)cc21
residual binding, % of control (HEK293T): 101%

solubility kinetic [1]: > 100 µM
SMILES: CCCN1C(=O)COc2ccc(S(=O)(=O)Nc3ccccc3F)cc21
residual binding, % of control (HEK293T): 147%

solubility kinetic [1]: > 100 µM
SMILES: CCCN1C(=O)COc2ccc(S(=O)(=O)Nc3cccc(Cl)c3C)cc21
residual binding, % of control (HEK293T): 131%

solubility kinetic [1]: > 100 µM
SMILES: CCCN1C(=O)COc2ccc(NC(=O)c3ccccc3Br)cc21
residual binding, % of control (HEK293T): 119%

solubility kinetic [1]: > 100 µM
SMILES: CCCN1C(=O)COc2ccc(S(=O)(=O)NCc3ccccc3)cc21
residual binding, % of control (HEK293T): 116%
